Test results published in patent US20250090437A1, “COSMETIC COMPOUNDING AGENT, COSMETIC AND PRODUCTION METHOD THEREOF” (MIYOSHI OIL & FAT CO., LTD., priority 2019, published 2025).

Key:
[1] = Water confinement property test (barrier property); format: physicochemical; conditions: 80 wt % aqueous solution, 0.01 mL/cm^2 on filter paper, 40° C. and 25% RH, 24 hours
Procedure: Next, 20.0 g of an ion-exchange water was put into a 40 mL pierce vial bottle (by AS ONE Corporation.), followed by removing an inner lid (rubber plug) of the pierce vial bottle, placing on the pierce vial bottle the filter paper to which each sample had been applied, and then plugging the bottle with an outer lid.
Further, Wm1, Wm2, Sm1 and Sm2 in the formula below respectively represent the following numerical values.
Wm1: Weight of ion-exchange water in vial before storage (using filter paper to which only ion-exchange water had been applied)
Wm2: Weight of ion-exchange water in vial after 24 hours (using filter paper to which only ion-exchange water had been applied)
Sm1: Weight of ion-exchange water in vial before storage (using filter paper to which sample had been applied)
Sm2: Weight of ion-exchange water in vial after 24 hours (using filter paper to which sample had been applied)

[2] = Water retention property test 1; format: physicochemical; conditions: 80 wt % aqueous solution; for Pre-test moisture rate: before the test (Karl Fischer); for Post-test moisture rate / Rate of reduction in moisture: unsealed; for Post-test moisture rate / Rate of reduction in moisture / Water retention property test 1 Post-test moisture rate / Water retention property test 1 Rate of reduction in moisture: 24 hours at 40° C. and 25% RH
Procedure: A moisture rate after 24 hours was again measured (post-test moisture rate: B), followed by using the formula below to calculate a rate of reduction in moisture so as to evaluate the water retention property. • Pre-test moisture rate: A (%) • Post-test moisture rate: B (%)

[3] = Water retention property and adherability with respect to healthy hair; set-up: species or system human; conditions: for Post-test moisture rate / Compound adhesion rate: healthy hair immersed 60 min in 80 wt % aqueous solution; for Post-test moisture rate: after 24 hours at 40° C., pre-test 7.6%; for Post-test moisture rate / Rate of reduction in moisture: 35 to 40% RH; for Rate of reduction in moisture: healthy hair, 80 wt % aqueous solution, 24 hours at 40° C.; for Adherability to the healthy hair: compared to the compounds of comparative examples B1 to B8
Procedure: In the following evaluations, a human black hair produced by Beaulax Co., Ltd was used as a healthy hair. A damaged hair was prepared by repeatedly having the healthy hair permed and bleached three times.
An 80 wt % aqueous solution of each of the compounds B1 to B26 (content in terms of anhydride in the cases of the compounds B1 to B23) was prepared, followed by using a Karl Fischer moisture meter (KF-200 by Mitsubishi Chemical Analytech Co., Ltd.) to confirm that a moisture rate was 20.0 wt %. As a healthy hair, there was used a chemically untreated healthy hair (human black hair by Beaulax Co., Ltd). The moisture rate (pre-test moisture rate A) of the hair was measured by an infrared moisture meter (by Kett Electric Laboratory).
After immersion, the hair was taken out, and KimWipes were then used to wipe off the compound until a change in weight was no longer observed, followed by measuring the weight of the hair (post-test hair weight B). The hair from which the compound had been wiped off was then placed into a thermo-hygrostat set to 40° C. and 35 to 40% RH. A moisture rate after 24 hours (post-test moisture rate B) was then measured, followed by calculating a rate of reduction in moisture with the following formula. Likewise, instead of the 80 wt % aqueous solution, evaluation was also performed in a similar manner using only an ion-exchange water (comparative example B4).
Further, an adhesion rate of the compound adhering to the hair was calculated with the following formula. […]

[4] = Sensory evaluation on damaged hair after using organic ammonium salt; set-up: species or system human; conditions: compared to the compounds of the comparative examples
Procedure: Here, an 80 wt % aqueous solution(s) of each of the compounds B11, B12, B23, B26 and B27 (content in terms of anhydride in the cases of the compounds B11, B12 and B23) were prepared and used as samples. Next, one minute was spent in evenly applying 10.0 g of each sample to a bundle of the damaged hairs weighing about 10 g, using a brush; the bundle of the damaged hairs was then left for 5 min. After leaving it for 5 min, the bundle of the damaged hairs was rinsed with a hot water of 40° C. for 30 sec, and evaluated was a finger-combing capability at the time of performing washing. The hair bundle that had been rinsed was then dried with a towel and further subjected to air drying for a day, followed by evaluating items such as elasticity/resilience (feeling by bare hands), cohesiveness, surface smoothness and non-waviness, from the perspective of superiority or inferiority to a test hair bundle(s) uncoated with the sample.

[5] = Sensory evaluation on healthy hair after using organic ammonium salt; set-up: species or system human; conditions: compared to the compounds of the comparative examples
Procedure: Here, an 80 wt % aqueous solution(s) of each of the compounds B11, B12, B23, B26 and B27 (content in terms of anhydride in the cases of the compounds B11, B12 and B23) were prepared and used as samples. Next, one minute was spent in evenly applying 10.0 g of each sample to a bundle of the healthy hairs weighing about 10 g, using a brush; the bundle of the healthy hairs was then left for 5 min. After leaving it for 5 min, the bundle of the healthy hairs was rinsed with a hot water of 40° C. for 30 sec, and evaluated was a finger-combing capability at the time of performing washing. The hair bundle that had been rinsed was then dried with a towel and further subjected to air drying for a day, followed by evaluating items such as flexibility, finger-combing capability, texture, elasticity/resilience (feeling by bare hands), volume increase (visual evaluation), cohesiveness, moist feeling, surface smoothness, non-stickiness (feeling by bare hands) and gloss (visual evaluation), from the perspective of superiority or inferiority to a test hair bundle(s) uncoated with the sample.

Row | Structure (SMILES) | Water evaporation inhibition rate [1] [%] | Pre-test moisture rate [2] [%] | Post-test moisture rate [2] [%] | Rate of reduction in moisture [2] [%] | further results
1 | CCCC[N+](CCCC)(CCCC)CCCC.[Br-] [Compound A54, tetrabutylammonium bromide, reference compound] | 29.5 | 20.0 | 15.3 | 23.6 | Post-test moisture rate [3]: 4.0%; Compound adhesion rate ([3]; listed as B24): 1.0%; Rate of reduction in moisture [3]: 47%
2 | NC(CO)(CO)CO.O=C(O)CC(O)(CC(=O)O)C(=O)O [Compound B13] |  |  |  |  | Compound adhesion rate [3]: 2.3%; Post-test moisture rate [3]: 6.5%; Rate of reduction in moisture [3]: 15%
3 | NC(CO)(CO)CO.O=C(O)CO [Compound B14] |  |  |  |  | Compound adhesion rate [3]: 1.3%; Post-test moisture rate [3]: 7.4%; Rate of reduction in moisture [3]: 3%
4 | CC(=O)CCC(=O)O.NC(CO)(CO)CO [Compound B17] |  |  |  |  | Compound adhesion rate [3]: 6.9%; Post-test moisture rate [3]: 6.5%; Rate of reduction in moisture [3]: 15%
5 | NC(CO)(CO)CO.O=C1OC(C(O)CO)C(O)=C1O (stereo not drawn) [Compound B20] |  |  |  |  | Compound adhesion rate [3]: 2.1%; Post-test moisture rate [3]: 6.6%; Rate of reduction in moisture [3]: 14%
6 | O [Compound B21] |  |  |  |  | Compound adhesion rate [3]: 1.1%; Post-test moisture rate [3]: 5.8%; Rate of reduction in moisture [3]: 24%
7 | CCCCn1cc[n+](C)c1.[Cl-] [Compound B25, 1-butyl-3-methylimidazolium chloride, reference compound] |  |  |  |  | Compound adhesion rate [3]: 1.0%; Post-test moisture rate [3]: 4.0%; Rate of reduction in moisture [3]: 47%
8 | CCCCCCCC/C=C\CCCCCCCC(=O)OCC(N)(CO)CO [Compound B30, 2-amino-2-hydroxymethyl-1,3-propanediol oleate] |  |  |  |  | Sensory evaluation on damaged hair (elasticity/resilience, cohesiveness, surface smoothness, suppression of waviness) [4]: superior; Sensory evaluation on healthy hair (flexibility, finger-combing, texture, elasticity/resilience, volume, cohesiveness, moist feeling, smoothness, non-stickiness, gloss) [5]: superior; Adherability to the healthy hair [3]: higher adherability
9 | CC(C)CCCCCCCCCCCCCCC(=O)OCC(N)(CO)CO [Compound B32, 2-amino-2-hydroxymethyl-1,3-propanediol isostearate] |  |  |  |  | Sensory evaluation on damaged hair (elasticity/resilience, cohesiveness, surface smoothness, suppression of waviness) [4]: superior; Sensory evaluation on healthy hair (flexibility, finger-combing, texture, elasticity/resilience, volume, cohesiveness, moist feeling, smoothness, non-stickiness, gloss) [5]: superior; Adherability to the healthy hair [3]: higher adherability
10 | CCCCCCCC/C=C\CCCCCCCC(=O)OCC(C)(N)CO (stereo not drawn) [Compound B33, 2-amino-2-methyl-1,3-propanediol oleate] |  |  |  |  | Sensory evaluation on damaged hair (elasticity/resilience, cohesiveness, surface smoothness, suppression of waviness) [4]: superior; Sensory evaluation on healthy hair (flexibility, finger-combing, texture, elasticity/resilience, volume, cohesiveness, moist feeling, smoothness, non-stickiness, gloss) [5]: superior; Adherability to the healthy hair [3]: higher adherability
11 | CCCCC/C=C\C/C=C\CCCCCCCC(=O)OCC(C)(N)CO (stereo not drawn) [Compound B34, 2-amino-2-methyl-1,3-propanediol linoleate] |  |  |  |  | Sensory evaluation on damaged hair (elasticity/resilience, cohesiveness, surface smoothness, suppression of waviness) [4]: superior; Sensory evaluation on healthy hair (flexibility, finger-combing, texture, elasticity/resilience, volume, cohesiveness, moist feeling, smoothness, non-stickiness, gloss) [5]: superior; Adherability to the healthy hair [3]: higher adherability
12 | CC(C)(C)CO [Compound C43] | 39.7 |  |  |  | Water retention property test 1 Pre-test moisture rate [2]: 20.0%; Water retention property test 1 Post-test moisture rate [2]: 19.3%; Water retention property test 1 Rate of reduction in moisture [2]: 4.4%
13 | CC(C)(CO)CO [Compound C47] | 34.8 |  |  |  | Water retention property test 1 Pre-test moisture rate [2]: 20.0%; Water retention property test 1 Post-test moisture rate [2]: 19.2%; Water retention property test 1 Rate of reduction in moisture [2]: 4.7%
14 | CC(CO)(CO)CO [Compound C50] | 39.1 | 20.0 | 19.1 | 4.4 | 
15 | CC(CO)(CO)CO [Compound C51] | 35.6 | 20.0 | 19.1 | 4.5 | 
16 | CC(CO)(CO)CO [Compound C52] | 36.8 | 20.0 | 18.6 | 7.1 | 
17 | CC(CO)(CO)CO [Compound C53] | 34.6 | 20.0 | 19.1 | 4.4 | 
18 | CC(CO)(CO)CO [Compound C54] | 30.3 | 20.0 | 18.8 | 5.8 | 
19 | CC(CO)(CO)CO [Compound C55] | 34.1 | 20.0 | 18.4 | 7.9 | 
20 | CCCCn1cc[n+](C)c1.F[B-](F)(F)F [Compound C63, 1-butyl-3-methylimidazolium tetrafluoroborate, reference compound] | 25.7 | 20.0 | 11.7 | 41.7 | 
21 | CC(C)(CO)CO [Compound C65] | 39.4 |  |  |  | 
22 | CC(N)(CO)CO.NCCCCCC(=O)O [Compound C76] | 35.7 |  |  |  | 
23 | CC(CO)(CO)CO [Compound C77] | 35.4 |  |  |  | 
24 | NC(CO)(CO)CO.O=C(O)CC(O)(CC(=O)O)C(=O)O [Compound C82] | 35.8 |  |  |  | 
25 | CS(=O)(=O)O.NC(CO)(CO)CO [Compound C83] | 31.3 |  |  |  | 
